Source: PMC12040169 (PLOS Biology, 2025)
Values after ≈ are worked out from the molar mass of the structure shown. Read-outs that look alike come from different tables or passages of the source.

What was measured:
[1] = target: T1, acyl-modification-free ctFabH (Chlamydia trachomatis, UniProt O84242); assay: intact protein LC/MS; assay type: biochemical; conditions: covalent acyl-enzyme intermediate; 10 µM protein, 50 µM acyl-CoA, pH 7.0
T1 construct: gene fabH
T1 sequence (O84242 2-327): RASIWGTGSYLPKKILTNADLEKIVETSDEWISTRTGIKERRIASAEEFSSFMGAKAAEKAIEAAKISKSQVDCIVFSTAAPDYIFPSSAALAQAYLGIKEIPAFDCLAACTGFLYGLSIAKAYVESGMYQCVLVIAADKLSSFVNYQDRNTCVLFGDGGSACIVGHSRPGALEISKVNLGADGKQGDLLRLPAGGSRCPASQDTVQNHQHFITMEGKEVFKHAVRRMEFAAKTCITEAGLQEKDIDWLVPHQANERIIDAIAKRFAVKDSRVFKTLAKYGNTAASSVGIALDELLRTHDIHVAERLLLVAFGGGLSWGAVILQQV

[2] = system: T2, CTL2-GFP (C. trachomatis L2/434/Bu, GFP-expressing); set-up: species or system HeLa; Intracellular C. trachomatis growth in HeLa cells, bulk GFP fluorescence relative to DMSO; conditions: 28.5 h, 10 µM; inhibitor
T2 construct: L2/434/Bu, GFP-expressing

[3] = system: T3, C. trachomatis L2/434/Bu expressing GFP (CTL2-GFP); set-up: species or system HeLa; C. trachomatis total inclusion area by high-content imaging, normalised to DMSO; conditions: 28.5 h, 10 µM; inhibitor
T3 construct: L2/434/Bu GFP intracellular growth in HeLa cells
Text: (§1) In this process, we also complemented the assay described above with an imaging-based readout (Fig 1B). After measurements of bulk GFP and resorufin fluorescence, cells were fixed, stained with the DNA dye Hoechst, and imaged at a high-content imaging platform to detect chlamydial inclusions (GFP) and host cell nuclei (Hoechst). The total area and number of inclusions in individual wells and the number of nuclei then served as additional proxies for chlamydial growth and host cell viability. […] MICs were calculated as described above.

[4] = in vitro; conditions: human, hela cells
[5] = target: T4, ctFabH (CTL2 FabH), His6(-fMet)SG-ctFabH (Chlamydia trachomatis, UniProt O84242); assay: continuous UV assay of acetoacetyl-CoA at […] nm; assay type: biochemical; conditions: covalent; 20 µM enzyme, 30 µM compound, 100 µM acetyl-CoA, 100 µM malonyl-CoA, pH 8.0, 25 °C, 50 mM MgCl2; with or without CoA preincubation
T4 construct: synthetic gene, modified pRSF-Duet1, E. coli host; partly acylated (mainly pentanoyl) as purified
T4 sequence (O84242 2-327): T1 sequence (O84242 2-327)

[6] = target: T1, acyl-modification-free ctFabH; assay: intact protein LC/MS; MS/MS of tryptic peptides; assay type: binding; conditions: covalent; active site cysteine; 10 µM protein, 50 µM compound, pH 7.0, 10 min to 1 h
[7] = in vitro; set-up: Viability of infected HeLa host cells, resazurin conversion, bulk resorufin fluorescence relative to DMSO; conditions: human, hela cells; bulk resorufin, mean of 3
[8] = system: T3, C. trachomatis L2/434/Bu expressing GFP (CTL2-GFP); assay: microbe, parasite or virus in culture; set-up: C. trachomatis GFP growth in infected HeLa cells, bulk GFP fluorescence normalised to DMSO; conditions: Chlamydia trachomatis, HeLa, 26 h; read-out: IC50 (µM), bulk GFP fluorescence
Protocol: (§2) MICs were calculated as described above.

[9] = system: T3, C. trachomatis L2/434/Bu expressing GFP (CTL2-GFP); assay: microbe, parasite or virus in culture; set-up: C. trachomatis total inclusion area by high-content imaging, normalised to DMSO; conditions: Chlamydia trachomatis, HeLa, 28.5 h; read-out: IC50 (µM), total inclusion area
In short: (§3)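 GFP/resorufin bulk fluorescence read → fix → Hoechst stain → high-content imaging. Inclusion total area + count = growth proxy; nuclei count = host viability proxy. MIC calc per earlier method.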

[10] = system: T2, CTL2-GFP (C. trachomatis L2/434/Bu, GFP-expressing); assay: microbe, parasite or virus in culture; set-up: C. trachomatis growth in HeLa, dose-response, mean of bulk GFP fluorescence and imaged total inclusion area; conditions: Chlamydia trachomatis, HeLa, 28.5 h; mean of GFP and inclusion area
In short: as §3

[11] = system: T5, B. adolescentis; assay: microbe, parasite or virus in culture; set-up: Microbial growth in liquid dilution assay, OD600 relative to DMSO control; conditions: Bifidobacterium adolescentis; estimated IC50; read-out: B. adolescentis, IC50 (µM) estimate
T5 construct: DSM 20083
In short: (§4)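 Commensal strains were grown with compounds in a dilution assay, with 30 µM among the concentrations used. A wider panel of gut bacteria was tested by radial diffusion, with 24–48 h compound exposure before growth inhibition zones were measured.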

[12] = system: T6, B. thetaiotaomicron; assay: microbe, parasite or virus in culture; set-up: Microbial growth in liquid dilution assay, OD600 relative to DMSO control; conditions: Bacteroides thetaiotaomicron; estimated IC50; read-out: B. thetaiotaomicron, IC50 (µM) estimate
T6 construct: DSM 2079
In short: as §4

[13] = system: T7, E. coli; assay: microbe, parasite or virus in culture; set-up: Microbial growth in liquid dilution assay, OD600 relative to DMSO control; conditions: Escherichia coli; estimated IC50; read-out: E. coli, IC50 (µM) estimate
T7 construct: DSM 301
In short: as §4

[14] = system: T8, E. faecalis; assay: microbe, parasite or virus in culture; set-up: Microbial growth in liquid dilution assay, OD600 relative to DMSO control; conditions: Enterococcus faecalis; estimated IC50; read-out: E. faecalis, IC50 (µM) estimate
T8 construct: DSM 20478
In short: as §4

[15] = system: T9, L. reuteri; assay: microbe, parasite or virus in culture; set-up: Microbial growth in liquid dilution assay, OD600 relative to DMSO control; conditions: Limosilactobacillus reuteri; estimated IC50; read-out: L. reuteri, IC50 (µM) estimate
T9 construct: DSM 20016
In short: as §4

[16] = system: T10, L. crispatus; assay: microbe, parasite or virus in culture; set-up: Microbial growth in liquid dilution assay, OD600 relative to DMSO control; conditions: Lactobacillus crispatus; estimated IC50; read-out: L. crispatus, IC50 (µM) estimate
T10 construct: DSM 20584

[17] = system: T11, L. iners; assay: organism not typed; set-up: Microbial growth in liquid dilution assay, OD600 relative to DMSO control; conditions: estimated IC50; read-out: L. iners, IC50 (µM) estimate
T11 construct: DSM 13335

[18] = system: T12, G. vaginalis; assay: microbe, parasite or virus in culture; set-up: Microbial growth in liquid dilution assay, OD600 relative to DMSO control; conditions: Gardnerella vaginalis, read-out: G. vaginalis, IC50 (µM) estimate
T12 construct: DSM 4944

[19] = system: T13, C. albicans; assay: microbe, parasite or virus in culture; set-up: Microbial growth in liquid dilution assay, OD600 relative to DMSO control; conditions: Candida albicans, read-out: C. albicans, IC50 (µM) estimate
T13 construct: DSM 1577

[20] = system: T3, C. trachomatis L2/434/Bu expressing GFP (CTL2-GFP); assay: microbe, parasite or virus in culture; set-up: species or system HeLa; C. trachomatis GFP growth in infected HeLa cells, bulk GFP fluorescence normalised to DMSO; conditions: Chlamydia trachomatis, 26 h; read-out: MIC (µM), bulk GFP fluorescence
Protocol: as §2

[21] = system: T3, C. trachomatis L2/434/Bu expressing GFP (CTL2-GFP); assay: microbe, parasite or virus in culture; set-up: species or system HeLa; C. trachomatis total inclusion area by high-content imaging, normalised to DMSO; conditions: Chlamydia trachomatis, 28.5 h; read-out: MIC (µM), total inclusion area
Text: as §1, with “We screened a library of 36,785 small molecules displaying drug-like properties and covering a wide chemical space (Fig 1A and S2A Data). In” for “In”

[22] = system: T2, CTL2-GFP (C. trachomatis L2/434/Bu, GFP-expressing); assay: microbe, parasite or virus in culture; set-up: species or system HeLa; C. trachomatis growth in HeLa, dose-response, mean of bulk GFP fluorescence and imaged total inclusion area; conditions: Chlamydia trachomatis, 28.5 h; mean of GFP and inclusion area
In short: as §3

[23] = target: T4, ctFabH (CTL2 FabH), His6(-fMet)SG-ctFabH; assay: continuous UV assay of acetoacetyl-CoA at […] nm; assay type: biochemical; conditions: 20 µM enzyme, 100 µM acetyl-CoA, 100 µM malonyl-CoA, pH 8.0, 25 °C, 50 mM MgCl2; surrogate of malonyl-ACP

SMILES: CC[C@H](C)C(=O)SCCNC(=O)CCNC(=O)[C@H](O)C(C)(C)COP(=O)(O)OP(=O)(O)OC[C@H]1O[C@@H](n2cnc3c(N)ncnc32)[C@H](O)[C@@H]1OP(=O)(O)O [2-methylbutyryl-CoA]
- intact protein LC/MS [1]: incubation of this stripped ctFabH with 2-methylbutyryl-CoA or isovaleryl-CoA

SMILES: CCn1cc(C(=O)O)c(=O)c2cc(F)c(NC3CCCCC3)cc21 [CBK286635]
- % of control remaining [2]: 100.652
- % of control remaining [3]: 72.3144
- viability at 28.5 h, 10 µM [4]: 89.2%

SMILES: O=C1Oc2nc3ccccc3cc2CN1C1CC1 [c1e]
- inhibition [5]: c1e displayed inhibitory activity towards ctFabH when added at about equimolar concentration
- intact protein LC/MS; MS/MS of tryptic peptides [6]: incubation with c1e generated an FabH-c1e adduct
- viability at 28.5 h, 0.000416667 µM [7]: 95.3%
- viability at 28.5 h, 0.00125 µM [7]: 82.8%
- viability at 28.5 h, 0.00375 µM [7]: 88.7%
- viability at 28.5 h, 0.0123333 µM [7]: 87.6%
- viability at 28.5 h, 0.037 µM [7]: 93.9%
- viability at 28.5 h, 0.111 µM [7]: 89.2%
- viability at 28.5 h, 0.333 µM [7]: 91.7%
- viability at 28.5 h, 1 µM [7]: 89.5%
- viability at 28.5 h, 3 µM [7]: 98.2%
- viability at 28.5 h, 10 µM [7]: 103%
- viability at 28.5 h, 30 µM [7]: 46.5%
- IC50 [8]: 0.0226 µM
- IC50 [9]: 0.0199 µM
- IC50 [10]: 0.0213 µM
- IC50 [11]: > 30 µM
- IC50 [12]: > 30 µM
- IC50 [13]: > 30 µM
- IC50 [14]: > 30 µM
- IC50 [15]: > 30 µM
- IC50 [16]: > 30 µM
- IC50 [17]: > 30 µM
- IC50 [18]: > 30 µM
- IC50 [19]: > 30 µM
- MIC [20]: 0.038 µM (≈ 0.00913 µg/mL)
- MIC [21]: 0.046 µM (≈ 0.0111 µg/mL)
- MIC [22]: 0.042 µM (≈ 0.0101 µg/mL)

SMILES: O=C(NN=Cc1ccc([N+](=O)[O-])o1)c1nc(-c2ccccc2)cc(-c2ccccc2)n1 [c3e]
- IC50 [8]: 0.118 µM
- IC50 [9]: 0.133 µM

SMILES: CC(C)(COP(=O)(O)OP(=O)(O)OC[C@H]1O[C@@H](n2cnc3c(N)ncnc32)[C@H](O)[C@@H]1OP(=O)(O)O)[C@@H](O)C(=O)NCCC(=O)NCCSC(=O)CC(=O)O [malonyl-CoA]
- continuous UV assay of acetoacetyl-CoA at 302 nm [23]: using acetyl-CoA and malonyl-CoA (instead of malonyl-ACP) as substrates
